What all share (type): in vivo, rice
In test [1] the test system is mutant line ML0831266-03093. Put plainly: Mesotrione tolerance trials / herbicide bioassay. As for the experimental part:
After the initial screening of the “mutation population,” the lines with no damage were selected and tested in additional experiments using different rates of the herbicide. In particular, a rate response experiment was conducted in which two different rates of mesotrione were applied pre-emergence, plus an additional foliar application was also applied. […] Progeny of this designated ML0831266-03093 are maintained as a new line carrying resistance to mesotrione herbicide. Seeds are deposited under ATCC PTA-13620. The line (ML0831266-03093) is a source of resistance that is backcrossed into proprietary rice lines or used directly in breeding to develop new proprietary rice lines. The developed lines are a source of herbicide resistance for use in development of new hybrids that offer an alternative mode of action to control weeds in rice. Affording this opportunity to growers is of great value both in providing high yields and in extending the useful life of available weed control technologies. These herbicide resistant traits can be tracked through the simple application of herbicides to growing plants.
(§1) Selection of material inheriting mesotrione tolerance is accomplished by a simple herbicide bioassay. A high rate of mesotrione (at least 420 gm ai/ha) is applied allowing differentiation of heterozygous individuals from homozygous individuals and the tolerance level of the […] line from the inherent tolerance level in the background of some types of rice. In one example a rate of 105 gm ai/ha is applied followed three weeks later by a second application of 630 gm ai/ha. In another example a rate of 420 gm ai/ha is applied in a single application. Yet another example entails applying the herbicide at a rate of 630 gm ai/ha. Herbicide applications are done at the three to four leaf stage of seedling growth. The ideal situation is to have also planted near or within the plants to be selected a set of plants from the original mutant mesotrione tolerant donor line ML0831266-03093, (FIG. 18A) a row of plants of the wild-type of the […] line, P1003 (FIG. 18B), and a row of the line involved as the other parent in the cross (FIG. 18C). These control lines allow easy differentiation for inheritance of the tolerance provided by the ML0831266-03093 mutant line through comparison of the response in the plants to be selected with the control lines. Only plants that live and are relatively healthy will have inherited and be homozygous for the tolerance level provided by the ML0831266-03093 mutant line (FIG. 18A).
(§2) The mutant line is planted in rows or alternatively whole plots are planted and rows of the unmutated line (P1003) and other types of rice or whole plots are planted. Mesotrione is applied pre-emergence or alternatively it is applied post-emergence at the three to four leaf stage of the rice plants. Various rates of mesotrione are applied pre-emergence, pre-emergence followed by post-emergent, or post-emergent with a single or sequential application. Post-emergent applications are applied at the 3-4 leaf stage of the rice.
Seedlings of size 3 to 4 leaves are sprayed with mesotrione herbicide. In one set of 89 plants mesotrione is first applied at 105 gm ai/ha killing 23 plants. Both the mutant line control ML0831266-03093 and the unmutated line P1003 survived the herbicide application while the unmutated line R0146 was killed. […]

In a further test the test system is unmutated line P1003. Put plainly: Mesotrione tolerance trials / herbicide bioassay.
Description: as §1, §2
(§3) Seedlings of size 3 to 4 leaves are sprayed with mesotrione herbicide. In one set of 89 plants mesotrione is first applied at 105 gm ai/ha killing 23 plants. Both the mutant line control ML0831266-03093 and the unmutated line P1003 survived the herbicide application while the unmutated line R0146 was killed. The surviving plants including some additional plants making a total of 95 are then sprayed with another treatment of mesotrione at a rate of 630 gm ai/ha killing or injuring 67 while 28 survived. (FIG. 23) The surviving ratio of plants to those killed or injured fits a one quarter ratio with a chi squared value of 1.03, well within the expected for a single recessive gene. Another set of F2 individuals of size 78 individuals are sprayed with a single application of mesotrione herbicide at a rate of 420 gm ai/ha resulting in 26 plants surviving also fitting in the expected one quarter ratio for a single recessive gene with a chi square value of 2.88 (Table 2).

Another test concerns unmutated line R0146. Put plainly: Mesotrione tolerance trials / herbicide bioassay.
Description: as §1, §2, §3

Test [2] has as its system F2 individuals derived from a cross of ML0831266-03093 and ML0831265-01493. Put plainly: Mesotrione herbicide bioassays on segregating F2 population. Here is the method: The mesotrione tolerant line ML0831266-03093 is tolerant to rates of 420 gm ai/ha and even a dual application of mesotrione first at a rate of 105 gm ai/ha followed three weeks later by an application of 630 gm ai/ha. […] The cross is made and the resulting F1 seeds are harvested, planted, and allowed to self to produce a F2 population. The F2 population is grown and tissue is collected from individual plants. Each F2 plant and parental lines are tested with a set of 192 SNP markers identified as being polymorphic between the two mutant lines ML0831266-03093 and ML0831265-01493. The set of polymorphic markers was identified as evenly spaced across the rice genome after testing both parental lines with a set of 796 SNP markers. All 192 markers including two found with linkage to target traits were selected from the 44 k SNP set described by Zhao et al. 2011.
as §3

The mark [3] stands for this setting: one application at 105 gai/ha followed by a second application of 630 gai/ha.
[4] abbreviates: one application at 105 gai/ha followed by second application of 630 gai/ha.
The mark [5] stands for this setting: single application of mesotrione at 105 gai/ha.
[6] abbreviates: single application of mesotrione at 420 gai/ha.

One compound from patent publication US9994862B2, “Rice resistant to HPPD and ACCase inhibiting herbicides” (priority 2011, dated 2018) can be followed below.

“Also recorded” adds a separate entry of the source.

For `CS(=O)(=O)c1ccc(C(=O)C2C(=O)CCCC2=O)c([N+](=O)[O-])c1` [mesotrione], in test [1] (420 gm ai/ha), the tolerance to mesotrione entry was “tolerant”. Moreover, in test [1] (applied rates of mesotrione, FIG. 6), the “tolerance to mesotrione in the presence of common rice weeds” value was “completely tolerant”. Besides, the survival after mesotrione result in test [1] (higher rates) was “survives”; in test [1] (low rate 105 gm ai/ha), “survived”; with unmutated line P1003 (higher rates), “killed or severally injured”; in the test on unmutated line P1003 (low rate 105 gm ai/ha), “survived”; in the test on unmutated line R0146 (low rate 105 gm ai/ha), “killed”. In addition, the “response of the rice to mesotrione” value was “tolerant; also recorded: little damage” in test [1] (setting [3]), “severely injured” in the test on unmutated line P1003 (setting [3]) and “completely killed” with unmutated line R0146 (setting [3]). In addition, the results for the “number of susceptible plants, observed” value in test [2] (setting [4]), in test [2] (setting [5]) and in test [2] (setting [6]) were 67 plants, 23 plants and 52 plants, respectively. Further, the “number of tolerant plants, observed” value in test [2] (setting [4]) worked out at 28 plants; in test [2] (setting [5]), 64 plants; in test [2] (setting [6]), 26 plants.
